Where two headings read alike, the source gives them in different places. Ends that are not written are not given here.
Columns and labels:
[1] = test system: T cell clone 3-3F4; assay: Chromium release assay, peptide-sensitized targets lysed by T cell clone 3-3F4; type: cell-based, human; conditions: for Peptide Concentration (nM), Amide, 3-3F4: carboxyl terminal amide peptide; for Peptide Concentration (nM), Amide, 3-3F4 / Peptide Concentration (nM), Free Acid, 3-3F4: chromium release, T cell clone 3-3F4; for Conc. (nM): concentration of peptide in which specific killing was between 15 and 30 percent: HLA A*0201-restricted EBVLCL targets, 3-3F4 effectors, E:T=5, 10-fold dilutions 500-0.00005 nM; for recognition by T cell clone 3-3F4 (in words): chromium release assay
Protocol: Nonamer peptides with the substitutions as shown at each position were synthesized as described in Example 1. […] Results of these assays are shown in the right-hand column of Table II, in terms of concentration of peptide (nM) in which specific killing was between 15 and 30 percent. Results presented are the average from at least three independent experiments carried out on different days using different batches of T cell […]. Peptides were tested using 10-fold dilutions, ranging from 500-0.00005 nM.
(§1) To take advantage of the increased immunogenicity of peptides 44 and 46, while maintaining the universal recognition of the native peptide, library-directed changes were made to peptides 44 and 46, substituting back the native amino acids. A series of 21 peptides were constructed based upon the sequence of the tetra-substituted peptides 44 and 46 in each of the carboxyl terminal amidated and free acid forms. The peptides contained single, double, or triple substitutions of amino acids of the native sequence at the positions indicated. These peptides were assayed utilizing a standard chromium release assay with the screening T cell clone, 3-3F4, and a representative T cell clone (VB57) from another individual expressing a different T cell receptor.

[2] = test system: T cell clone VB57; assay: Chromium release assay, peptide-sensitized targets lysed by T cell clone VB57; type: cell-based, human; conditions: for Peptide Concentration (nM), Amide, VB57: carboxyl terminal amide peptide
Text: as §1

[3] = test system: T cell clones from HLA A*0201 individuals seropositive for HCMV; conditions: for T cell clones giving greater specific cytotoxicity at a lower concentration than the native sequence: five T cell clones, EBVLCL targets sensitized at 5.0 or 0.5 nM; for recognition by T cell clones other than 3-3F4: four additional T cell clones from different HCMV-seropositive volunteers, up to 5 nM
Protocol: Chromium release assays were performed according to the methods of (20). Briefly, target cell lines (antigen presenting cells which present pp65495-503) were labeled for one hour with 200 μCi/ml ^51Cr (ICN™, Costa Mesa, Calif.). HCMV infected targets were prepared as follows. Five-hundred thousand fibroblasts were pretreated with 800 U/10^6 recombinant IFN-γ, (Preprotech™, Rocky Hill, N.J.) to upregulate MHC class I expression and HCMV was added at an m.o.i. of 4. Cells were incubated with virus for two hours at 37° C., in a 5% CO2 incubator. Fresh FBM containing IFN-γ was then added and the cells incubated for an additional 14 hours. Infected fibroblasts were trypsinized, labeled with ^51Cr as described above and used in the assay at an effector-to-target ratio (E/T) of 50 and 10. Epstein-Barr virus transformed B cell lines (EBVLCL) were generated following standard technology using the supernatant of EBV-infected marmoset cells. EBVLCL were grown in medium consisting of RPMI-1640 (Gibco™, Rockville, Md.) supplemented with 10% FBS, 10 mM Hepes Buffer Solution (Irvine Scientific™, Santa Ana, Calif.), penicillin, streptomycin and L-glutamine as described for fibroblast medium. The cells used as targets were prepared by pulsing with […] pp65495-503 peptide, and used at an E/T of 25 and 5. For PS-SCL screening and titration of analog peptides, T2 cells, maintained as described in Diamond et al., Blood 90:1751-1767 (1997), were pulsed with serial peptide dilutions for use as targets for T cell clone effectors at an E/T of 5.
In the assay, loaded targets and effectors were mixed in culture and incubated for four hours, at which time chromium release was measured. Supernatants were collected on filter frames (Skatron™, Oslo, Norway) and radioactivity determined in a Cobra II gamma counter (Packard™, Meriden, Conn.). For each assay, spontaneous release from the target cells in the absence of effector CTL and maximum possible release after treatment with 2% SDS (Baker Chemicals™, Phillipsburg, N.J.) was determined. Specific cytotoxicity was defined as: 100×[(Re−Rs)/Max−Rs)], where Re=experimental release, and Rs=spontaneous release.
The T cell clones were stimulated in vitro with the native sequence of pp65495-503 (SEQ ID NO:1) as described in Example 2.

[4] = test system: T cell clone 3-3F4; assay: PS-SCL screen and simultaneous native peptide titration, T2 cells, T cell clone 3-3F4; type: cell-based, human; conditions: E:T 5, read-out: concentration sensitizing 50% maximal lysis of T2 cells by 3-3F4
Protocol: Chromium release assays were performed according to the methods of (20). Briefly, target cell lines (antigen presenting cells which present pp65495-503) were labeled for one hour with 200 μCi/ml ^51Cr (ICN™, Costa Mesa, Calif.). HCMV infected targets were prepared as follows. Five-hundred thousand fibroblasts were pretreated with 800 U/10^6 recombinant IFN-γ, (Preprotech™, Rocky Hill, N.J.) to upregulate MHC class I expression and HCMV was added at an m.o.i. of 4. Cells were incubated with virus for two hours at 37° C., in a 5% CO2 incubator. Fresh FBM containing IFN-γ was then added and the cells incubated for an additional 14 hours. Infected fibroblasts were trypsinized, labeled with ^51Cr as described above and used in the assay at an effector-to-target ratio (E/T) of 50 and 10. […]
In the assay, loaded targets and effectors were mixed in culture and incubated for four hours, at which time chromium release was measured. Supernatants were collected on filter frames (Skatron™, Oslo, Norway) and radioactivity determined in a Cobra II gamma counter (Packard™, Meriden, Conn.). For each assay, spontaneous release from the target cells in the absence of effector CTL and maximum possible release after treatment with 2% SDS (Baker Chemicals™, Phillipsburg, N.J.) was determined. […]

[5] = test system: T cell clone 3-3F4; assay: Flow-cytometric HLA A2-Ig dimer binding to T cell clone 3-3F4; parameters: species or system human; conditions: specific fluorescence, peptide-loaded HLA A2-Ig dimers
Protocol: HLA A2-Ig dimer aliquots were individually loaded with a series of peptides, and incubated with two different T cell clones, 3-3F4 and VB57. The soluble HLA-A2-Ig complexes (HLA dimers) were loaded with peptide according to the methods of Greten et al., Proc. Natl. Acad. Sci. USA 95:7568-7573 (1998). For each peptide analog to be tested, 10 μg of HLA dimers in 10 μl PBS containing 0.02% NaN3 (Baker Chemical™, Phillipsburg, N.J.) was incubated for three days at 4° C. with 660-fold molar excess peptide. Dimers also were loaded with the pp65495-503 native peptide, an irrelevant peptide (pp54 B*0702 epitope), and 2 μl PBS buffer containing 0.02% NaN3, in all experiments to serve as controls. One microgram aliquots of peptide loaded dimers were mixed with 0.2 million of either T cell clone 3-3F4 or VB57 for 75 minutes on ice. Cells were washed in PBS containing 2% FBS and 0.02% NaN3 (WB), and subsequently stained with 0.9 μl/sample of goat anti-mouse IgG1-PE (Caltag™, Burlingame, Calif.). After two additional washings in WB, cells were analyzed by fluorescence-activated cell sorting (FACSCalibur™). Specific fluorescence was calculated as fluorescence ratio between the mean fluorescence of the peptide-loaded diners and the mean fluorescence of the buffer-loaded control diners. Peptides names ending in N are amidated, while those ending in C are free acids. Each peptide-loaded diner complex was tested at least twice with two different T cell clones (3-3F4 and VB57). The fluorescence indices indicated in the Figure are an average of both experiments.

[6] = test system: peripheral blood CTL of HCMV-seropositive HLA A*0201 donors; type: cell-based, human; conditions: amidated peptides
Protocol: Sixteen to twenty-four million of the ficoll-separated peripheral blood mononuclear cells were incubated 2-3 hours at 37° C. in a 5% CO2 incubator with 100 μM HCMV PP65495-503 peptide (SEQ ID NO: 1) in a volume of 100 μl of T cell culture medium (IVSTCM). IVSTCM consists of RPMI-1640 supplemented with 20% heat inactivated HAB serum, 10 IU/ml r-IL2 (Chiron™, Emeryville, Calif.); 25 mM Hepes Buffer Solution, 50 U/ml penicillin, 50 μg/ml streptomycin, 2 mM L-glutamine and 0.5 mM sodium pyruvate (Gibco™, Rockville, Md.). […] After the incubation period, the cells, now presenting pp65495-503 were resuspended in 2 ml IVSTCM, and γ-irradiated (2,400 rads) using the Isomedic Model 19 Gammator (Nuclear Canada, Parsippany, N.J.).
During the peptide incorporation procedure, an additional aliquot of 10-20 million cells from the same freshly separated peripheral blood mononuclear cells was depleted of CD4^+, CD16^+ and CD56^+ cells as follows. […] The resulting population was >80% CD8^+ as determined using a FAGSCalbur™ fluorescence activated cell sorter (BD Immunocytomeyry Systems™, Palo Alto, Calif.). […]
Peripheral blood from separate individuals was stimulated with peptides 115, 118, and 193 and subjected to a chromium release assay. […] Lymphocytes from three individuals were used for all four peptides, including SEQ ID NO:1, and one individual was evaluated with 193 peptide and the positive control.

[7] = target: T1, HLA A*0201 (Homo sapiens, UniProt P04439, D140Y/D185E/D98H/E176V/E277Q/G131W/G231S/I119V/I121R/I166T/I218V/L300P/L318F/N151K/N90K/P208A/P217A/Q86G/Q94H/R138H/R169H/T345S); assay: T2 assembly assay (MHC binding affinity); conditions: for difference between acid and amide forms in binding to HLA A*0201: T2 assembly assay; for MHC affinity (fluorescence ratio) by T2 assembly assay: T2 cells, 100 μM peptide overnight, mAb BB7.2
T1 construct: endogenous in cells; host or cells: T2 cells (TAP-deficient); β2-microglobulin purchased from Sigma, catalogue number not given
Protocol: See the methods of Nijman et al., Eur. J. Immunol. 23:1215-1219 (1993).
For each analog to be tested, 250,000 T2 cells were washed twice and resuspended in serum free IMDM and incubated overnight with 100 μM peptide together with 15 μg/ml human β2-microglobulin (Sigma™, Lt. Louis, Mo.) at 37° C. in a 5% CO2 incubator. […] After washing twice with cold buffer, FITC-conjugated rat anti-mouse IgG2a/2b (1:40 dilution; Pharmingen™, San Diego, Calif.) was added and incubated for another 30 minutes at 4° C. The cells were washed twice in cold buffer, and mean fluorescence intensity (MFI) of 10^4 gated cells was measured using a FACSCalibur™.
Fluorescence ratio is defined as mean fluorescence with peptide/mean fluorescence without peptide. Results for the amidated peptides indicate only slight changes in MHC binding.

126N: nonamer NLLPMVVSV amide, SEQ ID NO 65 (NLLPMVVSV-NH2) [Peptide 126N]
Peptide Concentration (nM), Amide, 3-3F4 [1]: 0.005 nM
Peptide Concentration (nM), Amide, VB57 [2]: 0.5 nM

127C: nonamer NLLPMVTSV, SEQ ID NO 68 (NLLPMVTSV-OH) [Peptide 127C]
Peptide Concentration (nM), Free Acid, 3-3F4 [1]: 5 nM
Peptide Concentration (nM), Free Acid, VB57 [2]: >5 nM

127N: nonamer NLLPMVTSV amide, SEQ ID NO 67 (NLLPMVTSV-NH2) [Peptide 127N]
Peptide Concentration (nM), Amide, 3-3F4 [1]: 0.05 nM
Peptide Concentration (nM), Amide, VB57 [2]: >5 nM

194C: nonamer NLLPMVATV, SEQ ID NO 40 (NLLPMVATV-OH) [Peptide 194C]
Peptide Concentration (nM), Free Acid, 3-3F4 [1]: >5 nM
Peptide Concentration (nM), Free Acid, VB57 [2]: >5 nM

194N: nonamer NLLPMVATV amide, SEQ ID NO 39 (NLLPMVATV-NH2) [Peptide 194N]
Peptide Concentration (nM), Amide, 3-3F4 [1]: 0.05 nM
Peptide Concentration (nM), Amide, VB57 [2]: 0.5 nM

195C: nonamer YLLPMVATV, SEQ ID NO 58 (YLLPMVATV-OH) [Peptide 195C]
Peptide Concentration (nM), Free Acid, 3-3F4 [1]: >5 nM
Peptide Concentration (nM), Free Acid, VB57 [2]: >5 nM

195N: nonamer YLLPMVATV amide, SEQ ID NO 57 (YLLPMVATV-NH2) [Peptide 195N]
Peptide Concentration (nM), Amide, 3-3F4 [1]: 0.005 nM
Peptide Concentration (nM), Amide, VB57 [2]: 0.5 nM

NLLPMVASV-NH2 [Peptide 118N]
T cell clones giving greater specific cytotoxicity at a lower concentration than the native sequence [3]: three out of five

NLVPMVATV [Peptide A7C, reference compound]
Conc. (nM): concentration of peptide in which specific killing was between 15 and 30 percent [1]: 0.5 nM
EC50 [4]: 0.02 nM
HLA-Ig dimer binding to T cell clone 3-3F4 [5]: bound well

YLLPMVTSV-NH2 [Peptide 46N]
Conc. (nM): concentration of peptide in which specific killing was between 15 and 30 percent [1]: 0.0005 nM
recognition by T cell clone 3-3F4 (in words) [1]: better recognized than the native epitope sequence
recognition by T cell clones other than 3-3F4 [3]: No T cell clone other than 3-3F4 recognized
recognition by T cell clones other than 3-3F4 ([3]; listed as 46): not recognized by any of the T cell clones in the cohort
recognition by individuals' peripheral blood T cells after in vitro stimulation with the peptide [6]: only T cells from the individual from whom the PS-SCL screen clone was derived showed any positive response
HLA-Ig dimer binding to T cell clone 3-3F4 [5]: poor binders
difference between acid and amide forms in binding to HLA A*0201 [7]: substantial binding differences
MHC affinity (fluorescence ratio) by T2 assembly assay [7]: not dramatically different from the native sequence

YLLPMVVSV-NH2 [Peptide 44N]
Conc. (nM): concentration of peptide in which specific killing was between 15 and 30 percent [1]: 0.00005 nM
recognition by T cell clone 3-3F4 (in words) [1]: better recognized than the native epitope sequence
recognition by T cell clones other than 3-3F4 [3]: No T cell clone other than 3-3F4 recognized
recognition by T cell clones other than 3-3F4 ([3]; listed as 44): not recognized by any of the T cell clones in the cohort
recognition by individuals' peripheral blood T cells after in vitro stimulation with the peptide [6]: only T cells from the individual from whom the PS-SCL screen clone was derived showed any positive response
HLA-Ig dimer binding to T cell clone 3-3F4 [5]: poor binders
difference between acid and amide forms in binding to HLA A*0201 [7]: substantial binding differences
MHC affinity (fluorescence ratio) by T2 assembly assay [7]: not dramatically different from the native sequence

YLVPMVASV-NH2 [Peptide 115N]
T cell clones giving greater specific cytotoxicity at a lower concentration than the native sequence [3]: two out of five

YLVPMVATV-NH2 [Peptide 193N]
T cell clones giving greater specific cytotoxicity at a lower concentration than the native sequence [3]: two out of five

From patent US6951651B2, “CTL epitope analogs” (priority 1999, dated 2005)
